Results published in paper PMC5849714, “Direct coupling of detergent purified human mGlu5 receptor to the heterotrimeric G proteins Gq and Gs” (Scientific Reports, 2018).

Key:
[1] = target: T1, human mGlu5 receptor (Homo sapiens, UniProt P41594); experiment: Bodipy-FL GTPγS activation of purified Gq/Gs by purified receptor ([…] ligand); pEC50 from IP-One assay in HEK293 cells; assay type: biochemical; parameters: gene GRM5; mGlu5-Δ856 (C-terminus truncated after Ala856)
Target sequence in this assay (P41594 21-856): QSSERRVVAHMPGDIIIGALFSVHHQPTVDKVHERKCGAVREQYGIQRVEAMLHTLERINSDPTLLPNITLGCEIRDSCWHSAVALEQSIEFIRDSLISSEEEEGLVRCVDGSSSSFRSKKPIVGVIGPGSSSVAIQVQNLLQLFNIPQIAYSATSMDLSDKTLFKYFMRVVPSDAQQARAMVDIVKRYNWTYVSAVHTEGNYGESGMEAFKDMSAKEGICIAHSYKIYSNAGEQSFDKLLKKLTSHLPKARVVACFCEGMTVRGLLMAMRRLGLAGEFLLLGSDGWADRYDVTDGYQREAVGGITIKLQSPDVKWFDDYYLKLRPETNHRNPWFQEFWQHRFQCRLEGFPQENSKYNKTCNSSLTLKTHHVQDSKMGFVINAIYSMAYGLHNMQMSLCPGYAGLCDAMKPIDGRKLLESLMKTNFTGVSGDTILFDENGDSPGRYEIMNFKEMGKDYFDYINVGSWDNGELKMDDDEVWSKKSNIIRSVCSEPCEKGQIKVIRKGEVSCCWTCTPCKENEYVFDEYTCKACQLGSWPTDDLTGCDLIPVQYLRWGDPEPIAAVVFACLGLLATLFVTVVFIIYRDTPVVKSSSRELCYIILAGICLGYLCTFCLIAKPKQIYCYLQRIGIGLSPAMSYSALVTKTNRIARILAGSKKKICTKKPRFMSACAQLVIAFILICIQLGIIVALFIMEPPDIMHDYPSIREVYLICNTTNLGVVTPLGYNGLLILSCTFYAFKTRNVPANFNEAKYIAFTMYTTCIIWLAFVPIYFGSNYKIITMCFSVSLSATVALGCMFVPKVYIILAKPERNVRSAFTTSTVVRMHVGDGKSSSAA

[2] = target: T1, human mGlu5 receptor; experiment: IP-One accumulation in transfected HEK293 cells; assay type: cell-based; parameters: gene GRM5; full-length wild-type (SNAP-tagged)
Target sequence in this assay (P41594 21-1212): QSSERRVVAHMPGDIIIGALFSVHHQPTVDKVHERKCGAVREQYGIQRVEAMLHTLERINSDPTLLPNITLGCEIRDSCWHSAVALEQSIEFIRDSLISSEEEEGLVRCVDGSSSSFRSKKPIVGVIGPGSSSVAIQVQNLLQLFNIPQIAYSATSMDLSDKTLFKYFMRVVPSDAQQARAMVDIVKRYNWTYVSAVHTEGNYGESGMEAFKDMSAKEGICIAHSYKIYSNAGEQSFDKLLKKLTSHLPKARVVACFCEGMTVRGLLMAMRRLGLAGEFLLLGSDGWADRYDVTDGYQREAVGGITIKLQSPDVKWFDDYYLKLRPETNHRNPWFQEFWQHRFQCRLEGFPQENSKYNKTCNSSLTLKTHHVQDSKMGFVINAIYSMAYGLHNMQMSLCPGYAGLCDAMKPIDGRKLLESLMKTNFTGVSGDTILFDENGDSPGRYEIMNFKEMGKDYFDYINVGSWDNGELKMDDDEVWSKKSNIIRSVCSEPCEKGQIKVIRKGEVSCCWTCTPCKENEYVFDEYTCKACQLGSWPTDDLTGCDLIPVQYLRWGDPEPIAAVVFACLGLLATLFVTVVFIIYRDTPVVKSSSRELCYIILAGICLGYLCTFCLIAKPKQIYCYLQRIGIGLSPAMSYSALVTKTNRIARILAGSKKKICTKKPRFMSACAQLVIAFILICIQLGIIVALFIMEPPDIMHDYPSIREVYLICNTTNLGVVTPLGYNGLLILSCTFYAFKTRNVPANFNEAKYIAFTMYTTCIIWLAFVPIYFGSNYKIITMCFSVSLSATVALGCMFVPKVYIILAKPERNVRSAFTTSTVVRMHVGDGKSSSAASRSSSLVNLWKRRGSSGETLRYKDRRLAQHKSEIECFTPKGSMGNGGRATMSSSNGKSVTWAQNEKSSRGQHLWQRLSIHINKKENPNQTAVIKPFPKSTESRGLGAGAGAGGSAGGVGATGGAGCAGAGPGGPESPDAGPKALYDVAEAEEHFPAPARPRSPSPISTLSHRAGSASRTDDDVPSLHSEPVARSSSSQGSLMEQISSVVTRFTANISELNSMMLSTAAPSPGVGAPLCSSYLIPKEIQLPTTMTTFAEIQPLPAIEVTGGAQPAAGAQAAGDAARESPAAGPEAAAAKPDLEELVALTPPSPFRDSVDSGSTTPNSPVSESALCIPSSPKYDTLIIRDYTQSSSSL

## C[C@@H](NC(=O)c1ccc(C#Cc2cccc(F)c2)cn1)C(C)(C)O [VU0424465, (R)-5-((3-fluorophenyl)ethynyl)-N-(3-hydroxy-3-methylbutan-2-yl) picolinamide]
[1]
  EC50: 2.95 nM

## N[C@@H](Cn1oc(=O)[nH]c1=O)C(=O)O [quisqualate]
[2]
  EC50: 30.9 nM
